pKi: −log10 of the molar value. Where two headings read alike, the source gives them in different places.
Tests used:
Type in all cases: biochemical
[1] = biological target: T1, Strep ligase (D-Ala-D-Ala ligase) (Streptococcus pneumoniae serotype 4, UniProt P0CB57); experiment: D-Ala-D-Ala ligase Ki determination (PK/LDH coupled assay), Strep ligase; conditions: Ki/ATP, avg, read-out: Strep ligase Ki/ATP (uM) avg
T1 sequence (P0CB57 1-347): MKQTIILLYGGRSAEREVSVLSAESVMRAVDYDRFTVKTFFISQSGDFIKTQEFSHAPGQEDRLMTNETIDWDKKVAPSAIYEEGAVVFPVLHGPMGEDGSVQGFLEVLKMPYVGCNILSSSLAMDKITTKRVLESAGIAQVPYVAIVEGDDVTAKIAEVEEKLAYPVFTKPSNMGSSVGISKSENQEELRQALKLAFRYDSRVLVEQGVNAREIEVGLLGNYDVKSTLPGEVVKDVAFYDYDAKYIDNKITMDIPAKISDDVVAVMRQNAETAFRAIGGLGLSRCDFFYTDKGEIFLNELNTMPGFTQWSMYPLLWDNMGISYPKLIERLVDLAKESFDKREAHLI
Excerpt: (§1) Inhibition of D-Ala-D-Ala ligase can be assayed for using the pyruvate kinase/lactate dehydrogenase (PK/LDH) assay described in Example 2, and as described in the literature (e.g., in Sarthy et al., Anal. Biochem., 254:288-290, 1997). In the bacterial cell wall synthesis process, the ligase catalyzes the conversion of adenosine triphosphate (ATP) to adenosine diphosphate (ADP) concurrent with the ligation of two D-alanine residues to form D-alanyl-D-alanine. PK then regenerates ATP from the ADP thus created simultaneously with the conversion of phosphopyruvate to pyruvate. LDH catalyzes the reduction of pyruvate to lactate by converting NADH to NAD^+. By monitoring the production rate of NAD^+ (e.g., using UV/Vis spectroscopy), D-Ala-D-Ala ligase activity can be ascertained.
(§2) The protein sequence for the enzyme D-ala-D-ala ligase has been determined in a variety of different bacterial species using standard techniques in biochemistry (see Table 5). The protein sequence from any species can be overexpressed in an appropriate host organism such as E. coli using standard molecular biology techniques. The ligase enzyme can be harvested, purified, and used in the above described assay for the determination of inhibitory activity.
(§3) The synthetic analogs of Example 1 were dissolved in dimethylsulfoxide (DMSO) at a concentration of 100 mM on the day of screening, using a vortex mixer and sonication if necessary for dissolution. The solutions were kept at room temperature until screening was completed.
(§4) A 10 mM NADH (Sigma) stock solution was prepared freshly on the day of screening by dissolving 32 μmol NADH in 3.2 ml double-distilled water. The NADH solution was kept on ice. Stock solutions containing 50 mM phosphoenolpyruvate (PEP; Sigma), 500 μM HERMES, 30 mM adenosine triphosphate (ATP; Sigma), 200 mM D-alanine (Sigma), and 4× core buffer (i.e., 400 mM Hepes, 40 mM magnesium chloride, and 40 mM potassium chloride), were also stored on ice. A stock solution of pyruvate kinase/lactate dehydrogenase (PK/LDH) was also obtained from Sigma.
(§5) Table of Final concentrations are dependent on the type of screening:
(§6) For each set of test compounds, two 96-well plates were used: an inhibitor plate and an enzyme plate. The test compounds correspond to rows A-G of the plates. Adenosine (Sigma) dissolved in DMSO, used as a control, corresponds to row H of each plate.
(§7) The enzyme solution was allowed to equilibrate to 25° C.
(§8) Dilutions were prepared in the inhibitor plate as follows: 50 μl DMSO was added to each well of columns 1-11, rows A-G, of the inhibitor plate. 50 μl DMSO were added to each well of columns 1-11, row H. 100 μl of the 100 mM test solutions were added to column 12, rows A-G (i.e., the first compound in row A, the second compound in row B, and so on). 100 μl of a 100 mM Adenosine solution was added to column 12, row H.
(§9) 50 μl of the test solution was transferred from column 12 in each row to column 11 of the a same row, mixing the solution with the DMSO. 50 μl of solution was then transferred from column 11 in each row to column 10 in the same row, 50 μl from column 10 was transferred to column 9, and so on, down to column 2. No solution was transferred to column 1. Multichannel pipettors were used in making the serial dilution.
(§10) 120 μl of the enzyme solution was added to each well of the enzyme plate.
(§11) The substrate solutions were brought to 25° C.
(§12) The analogs and enzymes were then incubated at 25° C. Since the reactions were initiated in columns, the analog addition is also in columns. At t=0 minutes, 5 μl analog was transferred from each well of columns 1-4 of the inhibitor plate to the corresponding well of the enzyme plate. At t=4 minutes, 5 μl analog was transferred from each well of columns 5-8 of the inhibitor plate to the corresponding well of the enzyme plate. At t=8 minutes, 5 μl analog was transferred from each well of columns 9-12 of the inhibitor plate to the corresponding well of the enzyme plate. The inhibitor plate was then frozen. […]

[2] = biological target: Staph ligase (D-Ala-D-Ala ligase) (Staphylococcus aureus, UniProt Q5HEB7); experiment: D-Ala-D-Ala ligase Ki determination (PK/LDH coupled assay), Staph ligase; conditions: Ki/ATP, avg, read-out: Staph ligase Ki/ATP (uM) avg
Sequence of Staph ligase (D-Ala-D-Ala ligase) (Q5HEB7 whole entry): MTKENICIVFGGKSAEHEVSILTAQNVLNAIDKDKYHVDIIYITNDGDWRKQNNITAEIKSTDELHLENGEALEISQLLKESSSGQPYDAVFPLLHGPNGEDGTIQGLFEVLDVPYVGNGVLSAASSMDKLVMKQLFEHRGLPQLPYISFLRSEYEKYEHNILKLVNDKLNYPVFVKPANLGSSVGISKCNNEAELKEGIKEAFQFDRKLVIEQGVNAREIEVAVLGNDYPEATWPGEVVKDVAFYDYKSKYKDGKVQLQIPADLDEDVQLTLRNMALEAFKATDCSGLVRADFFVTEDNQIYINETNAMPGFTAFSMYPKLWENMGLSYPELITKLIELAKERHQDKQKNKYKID
Excerpt: as §1, §2, §3, §4, §5, §6, §7, §8, §9, §10, §11, §12

[3] = biological target: H. Influenzae ligase (D-Ala-D-Ala ligase) (Haemophilus influenzae, UniProt P44405); experiment: D-Ala-D-Ala ligase Ki determination (PK/LDH coupled assay), H. influenzae ligase; conditions: Ki/ATP, avg, read-out: H. Influenzae ligase Ki/ATP (uM) avg
Sequence of H. Influenzae ligase (D-Ala-D-Ala ligase) (P44405 whole entry): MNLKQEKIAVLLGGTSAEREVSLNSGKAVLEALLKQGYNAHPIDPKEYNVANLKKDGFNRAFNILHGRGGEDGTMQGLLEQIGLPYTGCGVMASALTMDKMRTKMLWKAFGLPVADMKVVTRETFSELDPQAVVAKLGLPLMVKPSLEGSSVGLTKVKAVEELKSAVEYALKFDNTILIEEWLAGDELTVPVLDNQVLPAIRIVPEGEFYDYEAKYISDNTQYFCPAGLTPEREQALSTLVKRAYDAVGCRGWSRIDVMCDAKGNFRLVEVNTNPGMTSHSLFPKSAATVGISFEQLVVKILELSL
Excerpt: as §1, §2, §3, §4, §5, §6, §7, §8, §9, §10, §11, §12

[4] = biological target: E. coli ligase (D-Ala-D-Ala ligase) (Escherichia coli, UniProt P07862); experiment: D-Ala-D-Ala ligase Ki determination (PK/LDH coupled assay), E. coli ligase; conditions: E. coli ligase Ki/ATP (uM) avg, Ki/ATP, avg
Excerpt: as §1, §2, §3, §4, §5, §6, §7, §8, §9, §10, §11, §12

[5] = test system: T2, 4 ligases in the panel (D-Ala-D-Ala ligase); experiment: Ligase panel statements (ligases not individually named)
T2 construct: rows headed: ligase panel activity (in words); other: text b65
Excerpt: as §1, §2, §3
(§13) A 10 mM NADH (Sigma) stock solution was prepared freshly on the day of screening by dissolving 32 μmol NADH in 3.2 ml double-distilled water. The NADH solution was kept on ice. […]
(§14) Plots of reaction rates vs. inhibitor concentration were generated using Kaleidograph®, and Ki values were determined after the data was fitted to the proper equation.

[6] = biological target: T3, 4 ligases in the panel (D-Ala-D-Ala ligase); experiment: as above; conditions: 3 of the 4 ligases; read-out: Ki's against 3 of the 4 ligases in the panel
T3 construct: rows headed: Ki's against 3 of the 4 ligases in the panel; other: text b65; 3 of the 4 ligases
Excerpt: as §1, §2, §3, §13, §14

Structure (SMILES) | Ki ([1]; Table 3) | Ki ([2]; Table 3) | Ki ([3]; Table 3) | Ki ([4]; Table 3) | ligase panel activity (in words) [5] | pKi [6] | Ki ([1]; Table 4) | Ki ([2]; Table 4) | Ki ([3]; Table 4) | Ki ([4]; Table 4)
CCOc1ccc2ccccc2c1CN(CCC(=O)NCc1ccc(N)cc1)c1ncc2c(N)nc(N)nc2n1 | 1.6 µM | 1.2 µM | 1.6 µM | 8.7 µM | potent against three ligase species | – | – | – | – | –
CCOc1ccc2ccccc2c1CN(CCC(=O)NCc1cccc(CN)c1)c1ncc2c(N)nc(N)nc2n1 | 0.9 µM | 0.9 µM | 0.4 µM | 5.3 µM | – | > 6.00 | – | – | – | –
CCOc1ccc2ccccc2c1CN(CCC(=O)N1CCOCC1)c1ncc2c(N)nc(N)nc2n1 | 4.1 µM | 3.8 µM | 1.3 µM | 1.9 µM | – | – | – | – | – | –
C[C@@H](c1cccc2ccccc12)N(CCC(=O)O)c1ncc2c(N)nc(N)nc2n1 | – | – | – | – | – | – | 14.6 µM | 10 µM | 5.7 µM | 4.2 µM
CCOc1ccc2ccccc2c1CN(CCC(=O)NCC(=N)N)c1ncc2c(N)nc(N)nc2n1 | 1.4 µM | 6.3 µM | 0.6 µM | 1 µM | activity similar to that of the first compound | – | – | – | – | –

— patent publication US20080090847A1, “HETEROCYCLIC COMPOUNDS AND USES THEREOF AS D-ALANYL-D-ALANINE LIGASE INHIBITORS” (PLIVA D.D., priority 2001, published 2008)
